# Structures can show the parent of a compound that is named as a salt. Where two headings read alike, the source gives them in different places.
# Molecular target: human SARM1(50-724) (Homo sapiens (Human), UniProt Q6SZW1)
# Test: SARM1 NAD hydrolase biological assay (HPLC readout of NAD and NAM peak areas)
# Type: biochemical
# Method: The reaction was incubated at room temperature for 60 minutes and quenched with 20 μL of 0.4% formic acid. […] Total run time for each sample was 4 minutes. The run was isocratic with 1.5% methanol in 40 mM ammonium acetate pH 6.0. Samples were run at a flow rate of 0.8 ml/min at 55° C. Peak areas of NAD and NAM were determined using OpenLAB CDS (Chem Station edition) software. For dose-response, the compound was diluted serially 1:3 in DMSO and added to the reaction starting at a final compound concentration of 100 μM in 1% DMSO.
# [1] = 40 nM human SARM1(50-724), 0.3 mM NMN, 20 μM NAD, 60 minutes at room temperature, class symbols, read-out: Average IC50
# [2] = 40 nM human SARM1(50-724), 0.3 mM NMN, 20 μM NAD, 60 minutes at room temperature, given as numeric bound, read-out: Average IC50
# human SARM1(50-724), sequence (Q6SZW1 50-724): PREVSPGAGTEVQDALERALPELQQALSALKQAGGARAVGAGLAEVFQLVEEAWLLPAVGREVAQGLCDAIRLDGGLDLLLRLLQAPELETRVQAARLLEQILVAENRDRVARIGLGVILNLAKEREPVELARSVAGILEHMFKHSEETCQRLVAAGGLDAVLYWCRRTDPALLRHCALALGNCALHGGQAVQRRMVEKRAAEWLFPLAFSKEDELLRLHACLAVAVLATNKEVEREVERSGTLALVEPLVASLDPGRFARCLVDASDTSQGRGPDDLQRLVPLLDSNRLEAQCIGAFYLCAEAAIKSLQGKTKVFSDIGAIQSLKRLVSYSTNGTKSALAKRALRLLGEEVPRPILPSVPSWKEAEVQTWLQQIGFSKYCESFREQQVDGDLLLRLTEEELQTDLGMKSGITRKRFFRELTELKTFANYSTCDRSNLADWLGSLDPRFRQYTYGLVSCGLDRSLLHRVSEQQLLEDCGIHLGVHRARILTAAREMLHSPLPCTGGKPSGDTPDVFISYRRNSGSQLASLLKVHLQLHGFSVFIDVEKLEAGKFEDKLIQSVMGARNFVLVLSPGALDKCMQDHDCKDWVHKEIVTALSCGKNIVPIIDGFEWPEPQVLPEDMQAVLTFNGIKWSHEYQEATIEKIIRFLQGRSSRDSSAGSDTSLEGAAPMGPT
IC50 [1] [µM],Compound,further results
1 to 10,"ON=C(c1ncc(Cc2ccncc2)[nH]1)C(F)(F)F (mixture of isomers) [Example 13, (E/Z)-2,2,2-Trifluoro-1-(5-(pyridin-4-ylmethyl)-1H-imidazol-2-yl)ethan-1-one oxime]",–
–,"ON=C(c1nc(Cc2ccncc2)cs1)C(F)(F)F (mixture of isomers) [Example 18, (E/Z)-2,2,2-Trifluoro-1-(4-(pyridin-4-ylmethyl)thiazol-2-yl)ethan-1-one oxime]",IC50 [2]: > 100 µM
< 1,"CC(c1ccncc1)c1c[nH]c(CC(F)(F)F)n1 (racemic) [Example 5, (rac)-4-(1-(2-(2,2,2-Trifluoroethyl)-1H-imidazol-4-yl)ethyl)pyridine]",–
1 to 10,"CC(c1ccncc1)c1ccc(CC(F)(F)F)[nH]1 (racemic) [Example 11, (rac)-4-(1-(5-(2,2,2-Trifluoroethyl)-1H-pyrrol-2-yl)ethyl)pyridine]",–
10 to 100,"Cc1cnccc1Cc1c[nH]c(C(O)c2cncs2)n1 (racemic) [Example 21, (rac)-(5-((3-Methylpyridin-4-yl)methyl)-1H-imidazol-2-yl)(thiazol-5-yl)methanol]",–
< 1,"OC(c1nc(Cc2ccncc2Cl)c[nH]1)C(F)(F)F (racemic) [Example 23, (rac)-1-(4-((3-Chloropyridin-4-yl)methyl)-1H-imidazol-2-yl)-2,2,2-trifluoroethan-1-ol]",–
1 to 10,"OC(c1ccccn1)c1ncc(Cc2ccncc2)[nH]1 (racemic) [Example 35, (rac)-Pyridin-2-yl(5-(pyridin-4-ylmethyl)-1H-imidazol-2-yl)methanol]",–
1 to 10,"CC(O)(c1nc(Cc2ccncc2)c[nH]1)C(F)(F)F (racemic) [Example 40, (rac)-1,1,1-Trifluoro-2-(4-(pyridin-4-ylmethyl)-1H-imidazol-2-yl)propan-2-ol]",–
< 1,"C[C@@H](c1ccncc1)c1c[nH]c(CC(F)(F)F)n1 (single isomer, unassigned) [Example 5a]",–
1 to 10,"C[C@H](c1ccncc1)c1c[nH]c(CC(F)(F)F)n1 (single isomer, unassigned) [Example 5b]",–
< 1,"O[C@@H](c1ncc(Cc2ccncc2)[nH]1)C(F)(F)F (single isomer, unassigned) [Example 7]",–
< 1,"O[C@H](c1ncc(Cc2ccncc2)[nH]1)C(F)(F)F (single isomer, unassigned) [Example 7a]",–
1 to 10,"NC(c1nc(Cc2ccncc2)c[nH]1)C(F)(F)F (single isomer, unassigned) [Example 15]",–
< 1,"N[C@H](c1nc(Cc2ccncc2)c[nH]1)C(F)(F)F (single isomer, unassigned) [Example 15a]",–
1 to 10,"CNC(c1ncc(Cc2ccncc2)[nH]1)C(F)(F)F (single isomer, unassigned) [Example 16]",–
1 to 10,"CN[C@H](c1ncc(Cc2ccncc2)[nH]1)C(F)(F)F (single isomer, unassigned) [Example 16a]",–
10 to 100,"CN(C)C(c1ncc(Cc2ccncc2)[nH]1)C(F)(F)F (single isomer, unassigned) [Example 17]",–
1 to 10,"CN(C)[C@H](c1ncc(Cc2ccncc2)[nH]1)C(F)(F)F (single isomer, unassigned) [Example 17a]",–
10 to 100,"NC(c1nc(Cc2ccncc2)cs1)C(F)(F)F (single isomer, unassigned) [Example 19]",–
1 to 10,"OC(c1nc(Cc2ccncc2)c[nH]1)c1cncs1 (single isomer, unassigned) [Example 20]",–
< 1,"O[C@H](c1nc(Cc2ccncc2)c[nH]1)c1cncs1 (single isomer, unassigned) [Example 20a]",–
< 1,"C[C@@H](c1ccncc1)c1c[nH]c([C@H](O)C(F)(F)F)n1 (single isomer, unassigned) [Example 24]",–
10 to 100,"C[C@H](c1ccncc1)c1c[nH]c([C@@H](O)C(F)(F)F)n1 (single isomer, unassigned) [Example 24a]",–
< 1,"C[C@H](c1ccncc1)c1c[nH]c([C@H](O)C(F)(F)F)n1 (single isomer, unassigned) [Example 24b]",–
–,"C[C@@H](c1ccncc1)c1c[nH]c([C@@H](O)C(F)(F)F)n1 (single isomer, unassigned) [Example 24c]",IC50 [2]: > 50 µM
10 to 100,"OC(c1ncc(Cc2ccncc2)[nH]1)(c1cncs1)C(F)(F)F (single isomer, unassigned) [Example 26]",–

IC50 [1] [µM],Compound,further results
< 1,"O[C@](c1ncc(Cc2ccncc2)[nH]1)(c1cncs1)C(F)(F)F (single isomer, unassigned) [Example 26a]",–
10 to 100,"Cc1cnccc1Cc1cnc([C@H](O)c2cncs2)[nH]1 (single isomer, unassigned) [Example 30]",–
1 to 10,"Cc1cnccc1Cc1cnc([C@@H](O)c2cncs2)[nH]1 (single isomer, unassigned) [Example 30a]",–
–,"O[C@H](c1ncc(Cc2ccncc2)[nH]1)c1nccs1 (single isomer, unassigned) [Example 31]",IC50 [2]: > 50 µM
1 to 10,"O[C@@H](c1ncc(Cc2ccncc2)[nH]1)c1nccs1 (single isomer, unassigned) [Example 31a]",–
< 1,"C[C@@](O)(c1ncc(Cc2ccncc2)[nH]1)C(F)(F)F (single isomer, unassigned) [Example 32]",–
1 to 10,"C[C@](O)(c1ncc(Cc2ccncc2)[nH]1)C(F)(F)F (single isomer, unassigned) [Example 32a]",–
1 to 10,"CO[C@@H](c1ncc(Cc2ccncc2)[nH]1)C(F)(F)F (single isomer, unassigned) [Example 33]",–
1 to 10,"COC(c1ncc(Cc2ccncc2)[nH]1)C(F)(F)F (single isomer, unassigned) [Example 33a]",–
–,"O[C@H](c1ncc(Cc2ccnc(F)c2)[nH]1)C(F)(F)F (single isomer, unassigned) [Example 34]",IC50 [2]: > 100 µM
–,"O[C@@H](c1ncc(Cc2ccnc(F)c2)[nH]1)C(F)(F)F (single isomer, unassigned) [Example 34a]",IC50 [2]: > 100 µM
1 to 10,"Cc1cnccc1Cc1c[nH]c(C(O)C(F)(F)F)n1 (single isomer, unassigned) [Example 37]",–
< 1,"Cc1cnccc1Cc1c[nH]c([C@@H](O)C(F)(F)F)n1 (single isomer, unassigned) [Example 37a]",–
< 1,"O[C@@H](c1nc(Cc2ccncc2F)c[nH]1)C(F)(F)F (single isomer, unassigned) [Example 38]",–
1 to 10,"O[C@H](c1nc(Cc2ccncc2F)c[nH]1)C(F)(F)F (single isomer, unassigned) [Example 38a]",–
1 to 10,"FC(F)(F)CCc1nc(Cc2ccncc2)c[nH]1 [Example 2, 4-((2-(3,3,3-trifluoropropyl)-1H-imidazol-4-yl)methyl)pyridine]",–
–,"N#CCCc1nc(Cc2ccncc2)c[nH]1 [Example 4, 3-(4-(Pyridin-4-ylmethyl)-1H-imidazol-2-yl)propanenitrile]",IC50: 1 to 10 µM
10 to 100,"FC(F)(F)Cc1nc(Cc2ccncc2)n[nH]1 [Example 8, 4-((5-(2,2,2-Trifluoroethyl)-1H-1,2,4-triazol-3-yl)methyl)pyridine]",–
1 to 10,"FC(F)(F)Cc1csc(Cc2ccncc2)n1 [Example 9, 2-(Pyridin-4-ylmethyl)-4-(2,2,2-trifluoroethyl)thiazole]",–
1 to 10,"FC(F)(F)Cc1nc(Cc2ccncc2)cs1 [Example 10, 4-(Pyridin-4-ylmethyl)-2-(2,2,2-trifluoroethyl)thiazole]",–
10 to 100,"Cc1[nH]c(CC(F)(F)F)nc1Cc1ccncc1 [Example 14, 4-((5-Methyl-2-(2,2,2-trifluoroethyl)-1H-imidazol-4-yl)methyl)pyridine]",–
1 to 10,N[C@@H](c1nc(Cc2ccncc2)cs1)C(F)(F)F [Example 19a],–
10 to 100,"FC(F)(F)Cc1ncc(Cc2c(Cl)cncc2Cl)[nH]1 [Example 22, 3,5-Dichloro-4-((2-(2,2,2-trifluoroethyl)-1H-imidazol-5-yl)methyl)pyridine]",–
< 1,"Cc1cnccc1Cc1c[nH]c(CC(F)(F)F)n1 [Example 25, 3-Methyl-4-((2-(2,2,2-trifluoroethyl)-1H-imidazol-4-yl)methyl)pyridine]",–
–,"FC(F)(F)Cc1nc(Cc2ccnc(Cl)c2)c[nH]1 [Example 28, 2-Chloro-4-((2-(2,2,2-trifluoroethyl)-1H-imidazol-4-yl)methyl)pyridine]",IC50 [2]: > 50 µM
–,"Fc1cc(Cc2c[nH]c(CC(F)(F)F)n2)ccn1 [Example 29, 2-Fluoro-4-((2-(2,2,2-trifluoroethyl)-3H-imidazol-4-yl)methyl)pyridine]",IC50 [2]: > 50 µM

Compound,IC50 [1] [µM],further results
"FC(F)(F)Cc1nc(Cc2ccncc2)c[nH]1 [Example 1, 4-((2-(2,2,2-Trifluoroethyl)-1H-imidazol-4-yl)methyl)pyridine]",< 1,–
"N#CCc1nc(Cc2ccncc2)c[nH]1 [Example 3, 2-(4-(Pyridin-4-ylmethyl)-1H-imidazol-2-yl)acetonitrile]",< 1,–
"c1cc(Cc2c[nH]c(Cc3cncs3)n2)ccn1 [Example 6, 5-((4-(Pyridin-4-ylmethyl)-1H-imidazol-2-yl)methyl)thiazole]",< 1,–
"O=C(c1ncc(Cc2ccncc2)[nH]1)C(F)(F)F [Example 12, 2,2,2-Trifluoro-1-(5-(pyridin-4-ylmethyl)-1H-imidazol-2-yl)ethan-1-one hydrochloride]",< 1,–
"FC(F)(F)Cc1nc(Cc2ccncc2Cl)c[nH]1 [Example 27, 3-Chloro-4-((2-(2,2,2-trifluoroethyl)-1H-imidazol-4-yl)methyl)pyridine]",< 1,–
